Earlier results on 35 sequences are cited in PMC8198792, “Prediction of Anticancer Peptides with High Efficacy and Low Toxicity by Hybrid Model Based on 3D Structure of Peptides” (International Journal of Molecular Sciences, 2021).

In one data set the test system is cancer cell lines. Details: method as in 6 sources, ref CancerPPD [45] and SATPdb ||| ref CancerPPD/SATPdb ||| ref CancerPPD, SATPdb, Swissprot (PDB) ||| ref CancerPPD/SATPdb/Swissprot(PDB) ||| ref CancerPPD / SATPdb ||| ... The following applies: cited from earlier work. The source says: Supplement ijms-22-05630-s001.zip/ACPs(seguence).xlsx, sheet "D1" | column: Activity || Supplement ijms-22-05630-s001.zip/ACPs(seguence).xlsx, sheet "D2" | column: Activity || Supplement ijms-22-05630-s001.zip/ACPs(seguence).xlsx, sheet "D3" | column: Activity || (+ 2 further places)

Data set [1] concerns many types of cells, including non-cancer cells. The following applies: toxic peptides dataset TD2; class label 1 (toxic, positive set) or 0 (non-toxic AMP, negative set); ref SATPdb; cited from earlier work.
Where [2] appears, read: ACPs dataset D3 (sheet "D3"), label 1 = ACP, 0 = non-ACP, ref CancerPPD/SATPdb.
[3] abbreviates: ACPs dataset D4 (sheet "D4"), label 1 = ACP, 0 = non-ACP, ref CancerPPD / SATPdb.
Setting [4] is: ACPs dataset D5, sheet "D5", label 1 = ACP, 0 = non-ACP, ref CancerPPD [45] and SATPdb.
Where [5] appears, read: ACPs dataset D3 (supplement sheet "D3"), 1 = ACP, 0 = non-ACP, ref CancerPPD [45] and SATPdb.

Where two headings read alike, the source gives them in different places.

On to “ACNFQSCWATCQAQHSIYFRRAFCDRSQCKCVFVRG [satpdb14312]”, for which the Activity (with cancer cell lines (setting [2]); with cancer cell lines (setting [3]); in the data set on cancer cell lines (setting [4]); in data set [1]) was 0 each time.
Take AIGSILGALAKGLPTLISWIKNR [satpdb14614]: the Activity in the data set on cancer cell lines (setting [2]) was 0; in the data set on cancer cell lines (setting [3]) it was 0; in the data set on cancer cell lines (setting [4]), 0; in data set [1] it was 1.
Turning to AILTTLANWARKFL [satpdb12672], the Activity (in the data set on cancer cell lines (setting [2]); with cancer cell lines (setting [3]); with cancer cell lines (setting [4]); in data set [1]) was 0 each time.
As for “ALALLOHALHOLALLAOHLAHOLALA [satpdb11016]”, the Activity (in the data set with cancer cell lines (setting [5]); in data set [1]) was 0 throughout.
“AMWKDVLKKIGTVALHAGKAALGAVADTISQ [satpdb14434]”: the Activity (in the data set on cancer cell lines (setting [2]); in the data set on cancer cell lines (setting [3]); in the data set on cancer cell lines (setting [4]); in data set [1]) was 0 each time.
Regarding AVLDILKDVGKGLLSHFMEKV [satpdb13844], the Activity (with cancer cell lines (setting [2]); in the data set with cancer cell lines (setting [3]); with cancer cell lines (setting [4]); in data set [1]) was 0 throughout.
Consider FASLLGKALKALAKQ [satpdb10678], for which the Activity (with cancer cell lines (setting [5]); in the data set on cancer cell lines (setting [3]); with cancer cell lines (setting [4]); in data set [1]) was 0 throughout.
For FFPIVGKLLFGLSGLL [satpdb12681], the Activity (in the data set with cancer cell lines (setting [2]); in the data set with cancer cell lines (setting [3]); with cancer cell lines (setting [4]); in data set [1]) was 0 throughout.
FIGAILPAIAGLVGGLINR [satpdb12061]: the Activity in the data set on cancer cell lines (setting [2]) is 0; in the data set with cancer cell lines (setting [3]), 0; in the data set on cancer cell lines (setting [4]), 0; in data set [1], 1.
Turning to FIGAVAGLLSKIF [satpdb10850], the Activity with cancer cell lines (setting [5]) was 0; in the data set with cancer cell lines (setting [3]), 0; in the data set on cancer cell lines (setting [4]) it was 0; in data set [1], 1.
On to “FKIKPGKVLDKFGKIVGKVLKQLKKVS [satpdb13509]”, for which the Activity is recorded as 0 in the data set with cancer cell lines (setting [2]), 0 with cancer cell lines (setting [3]), 0 with cancer cell lines (setting [4]) and 1 in data set [1].
Turning to FLGALWNVAKSVF [satpdb13946], the Activity (in the data set with cancer cell lines (setting [2]); in the data set with cancer cell lines (setting [3]); in the data set on cancer cell lines (setting [4]); in data set [1]) was 0 in each case.
Turning to FLGLLPSIVSGAVSLVKKL [satpdb10320], the Activity (in the data set with cancer cell lines (setting [5]); in the data set on cancer cell lines (setting [3]); in the data set with cancer cell lines (setting [4]); in data set [1]) was 0 in each case.
In the case of FLPFLAKILTGVL [satpdb14646], the Activity (in the data set on cancer cell lines (setting [2]); in the data set on cancer cell lines (setting [3]); in the data set on cancer cell lines (setting [4]); in data set [1]) was 0 throughout.
On to FLPFLKSILGKIL [satpdb13847], for which the Activity (in the data set with cancer cell lines (setting [2]); in the data set on cancer cell lines (setting [3]); with cancer cell lines (setting [4]); in data set [1]) was 0 throughout.
As for FLPIAGKLLSGLSGLL [satpdb12964], the Activity (in the data set with cancer cell lines (setting [2]); in the data set with cancer cell lines (setting [3]); in the data set on cancer cell lines (setting [4]); in data set [1]) was 0 throughout.
As to FLPILINLIHKGLL [satpdb14138], the Activity (in the data set on cancer cell lines (setting [2]); with cancer cell lines (setting [3]); in the data set with cancer cell lines (setting [4]); in data set [1]) was 0 throughout.
In the case of FLPLLASLFSGLF [satpdb11101], the Activity (with cancer cell lines (setting [5]); in the data set on cancer cell lines (setting [3]); in the data set on cancer cell lines (setting [4]); in data set [1]) was 0 in each case.
With FLPLLVGAISSILPKIF [satpdb12883], the Activity in the data set with cancer cell lines (setting [2]) is on record as 0; with cancer cell lines (setting [3]) it was 0; with cancer cell lines (setting [4]), 0; in data set [1], 1.
FLPLVGKILSGLI [satpdb11230]: the Activity (in the data set with cancer cell lines (setting [5]); in the data set with cancer cell lines (setting [3]); with cancer cell lines (setting [4]); in data set [1]) was 0 each time.
As to FLSLIPHAINAVSAIAKHS [satpdb10076], the Activity (in the data set with cancer cell lines (setting [5]); in the data set with cancer cell lines (setting [3]); in the data set on cancer cell lines (setting [4]); in data set [1]) was 0 in each case.
On to FLSLIPHAINAVSALANHG [satpdb14661], for which the Activity (in the data set with cancer cell lines (setting [2]); with cancer cell lines (setting [3]); with cancer cell lines (setting [4]); in data set [1]) was 0 each time.
Consider FLSLLPSLVSGAVSLVKIL [satpdb10512], for which the Activity (in the data set with cancer cell lines (setting [5]); with cancer cell lines (setting [3]); with cancer cell lines (setting [4]); in data set [1]) was 0 throughout.
Consider FLSTLWNAAKSIF [satpdb12345], for which the Activity in the data set with cancer cell lines (setting [2]) was 0; in the data set on cancer cell lines (setting [3]) it was 0; in the data set on cancer cell lines (setting [4]), 0; in data set [1] it was 1.
For FLWGLIPGAISAVTSLIKK [satpdb12159], the Activity (with cancer cell lines (setting [2]); with cancer cell lines (setting [3]); in the data set on cancer cell lines (setting [4]); in data set [1]) was 0 throughout.
GFGSLLGKALRLGANVL [satpdb12093]: the Activity (in the data set with cancer cell lines (setting [2]); in the data set on cancer cell lines (setting [3]); in the data set with cancer cell lines (setting [4]); in data set [1]) was 0 each time.
As to GFGSVLGKALKFGANLL [satpdb10971], the Activity (in the data set on cancer cell lines (setting [5]); in the data set on cancer cell lines (setting [3]); with cancer cell lines (setting [4]); in data set [1]) was 0 in each case.
Consider GFLGSLLKTGLKVGSNLL [satpdb10293], for which the Activity in the data set with cancer cell lines (ACPs dataset D1, 1 = ACP (positive), 0 = non-ACP (negative), label taken from databases, ref CancerPPD [45] and SATPdb) is given as 0; with cancer cell lines (ACPs dataset D4 (sheet "D4"), label 1 = ACP (CancerPPD ID), 0 = non-ACP (non-anticancer AMP, SATPdb ID), ref CancerPPD [45] and SATPdb), 0; in data set [1], 1.
In the case of GFRDVLKGAAKAFVKTVAGHIAN [satpdb12067], the Activity (in the data set with cancer cell lines (setting [2]); with cancer cell lines (setting [3]); in the data set on cancer cell lines (setting [4]); in data set [1]) was 0 throughout.
For “GIGGALLSVGKLALKGLANVLADKFAN [satpdb14012]”, the Activity is 0 in the data set with cancer cell lines (setting [2]), 0 with cancer cell lines (setting [3]), 0 in the data set on cancer cell lines (setting [4]) and 1 in data set [1].
Turning to GILDVAKTLVGKLRNVLGI [satpdb10523], the Activity (in the data set on cancer cell lines (setting [5]); in the data set with cancer cell lines (setting [3]); in the data set with cancer cell lines (setting [4]); in data set [1]) was 0 each time.
As to “GKVLDKFGKIVGKVLKQLKKVSAVAKV [satpdb11239]”, the Activity in the data set on cancer cell lines (setting [5]) is listed as 0; in the data set on cancer cell lines (setting [3]) it was 0; with cancer cell lines (setting [4]), 0; in data set [1] it was 1.
GLADFLNKAVGKVVDFVKS [satpdb10833]: the Activity (with cancer cell lines (setting [5]); with cancer cell lines (setting [3]); with cancer cell lines (setting [4]); in data set [1]) was 0 throughout.
Consider GLFGILGSVAKHVLPHVIPVVAEHL [satpdb11946], for which the Activity (with cancer cell lines (setting [2]); with cancer cell lines (setting [3]); in the data set on cancer cell lines (setting [4]); in data set [1]) was 0 throughout.
GLFSVLGSVAKHLLPHVAPIIAEKL [satpdb13391]: the Activity (in the data set with cancer cell lines (setting [2]); in the data set on cancer cell lines (setting [3]); with cancer cell lines (setting [4]); in data set [1]) was 0 throughout.
